Reference: patent US20250311727A1, “SUBSTITUTED 2-AMINOAZINES AND SALTS THEREOF, AND USE THEREOF AS HERBICIDAL ACTIVE SUBSTANCES” (BAYER AKTIENGESELLSCHAFT, priority 2022, published 2025)

How the values were obtained:
Type in all cases: in vivo
[1] = test system: Amaranthus retroflexus; test: Pre-emergence herbicide efficacy at 320 g/ha, AMARE; settings: scored visually after about 3 weeks vs untreated controls, 100% = plants have died
Outline: (§1)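 Visual scores, given as percent of untreated controls (0% = no effect, 100% = dead plants), were taken about 3 weeks after treatment under greenhouse conditions. Treatment was a pre-emergence soil-surface application of WP or EC formulation at 320 g/ha, made up in 600 L/ha water plus 0.5% additive, over seeds covered in sandy loam.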

[2] = test system: Echinochloa crus-galli; test: Pre-emergence herbicide efficacy at 320 g/ha, ECHCG; settings: scored visually after about 3 weeks vs untreated controls, 100% = plants have died
Outline: as §1

[3] = test system: Lolium rigidum; test: Pre-emergence herbicide efficacy at 320 g/ha, LOLRI; settings: scored visually after about 3 weeks vs untreated controls, 100% = plants have died
From the text: (§2) Unwanted plants/weeds: • ABUTH: Abutilon theophrasti • ALOMY: Alopecurus myosuroides • AMARE: Amaranthus retroflexus • DIGSA: Digitaria sanguinalis • ECHCG: Echinochloa crus-galli • KCHSC: Kochia scoparia • LOLRI: Lolium rigidum • MATIN: Matricaria inodora • POAAN: Poa annua • POLCO: Polygonum convolvulus • SETVI: Setaria viridis • STEME: Stellaria media • VERPE: Veronica persica • VIOTR: Viola tricolor A. Post-Emergence Herbicidal Efficacy at 320 g/ha
Seeds of mono- and dicotyledonous weed plants were placed in plastic pots in sandy loam soil (doubly sown with one species each of mono- or dicotyledonous weed plants per pot) and covered with soil. The compounds of the invention, formulated in the form of wettable powders (WP) or as emulsion concentrates (EC), were then applied to the surface of the covering soil as aqueous suspension or emulsion with addition of 0.5% additive at a water application rate of 600 litres per hectare (converted). After the treatment, the pots were placed in a greenhouse and kept under good growth conditions for the test plants. After about 3 weeks, the efficacy of the preparations was scored visually in comparison with untreated controls as percentages.
For example, 100% activity=the plants have died, 0% activity=like control plants.
Tables C1 to C12 below show the effects of selected compounds of the general formula (I) according to Table 1 on various harmful plants and at an application rate corresponding to 320 g/ha, which were obtained by the trial procedure specified above.

[4] = test system: Amaranthus retroflexus; test: Pre-emergence herbicide efficacy at 80 g/ha, AMARE; settings: scored visually after about 3 weeks vs untreated controls, 100% = plants have died
Outline: (§3)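 Visual % activity scored after roughly 3 weeks in the greenhouse against untreated pots, 100% meaning dead plants and 0% like controls. Treatment was soil-surface application right after sowing, at 80 g/ha. Formulated as WP or EC in water at 600 l/ha with 0.5% additive.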

[5] = test system: Kochia scoparia; test: Post-emergence herbicidal efficacy at 80 g/ha, KCHSC; settings: rated visually after about 3 weeks vs untreated controls, 100% = plants have died
Outline: (§4)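 Visual rating against untreated plants, about 3 weeks after treatment, on a 0–100% scale where 100% means dead plants. Compounds were formulated as WP or EC with 0.5% additive and applied at 600 l/ha water onto one-leaf-stage greenhouse weeds, sown 2–3 weeks earlier in sandy loam.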

[6] = test system: Echinochloa crus-galli; test: Post-emergence herbicidal efficacy at 320 g/ha, ECHCG; settings: rated visually after about 3 weeks vs untreated controls, 100% = plants have died
Outline: (§5)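 Visual rating about 3 weeks after treatment, scored against untreated plants on a scale from 0% (no effect) to 100% (dead). Application was foliar, as aqueous WP or EC suspension or emulsion with 0.5% additive at 600 L/ha, on one-leaf-stage greenhouse plants 2–3 weeks old, grown in sandy loam.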

[7] = test system: Veronica persica; test: Pre-emergence herbicide efficacy at 320 g/ha, VERPE; settings: scored visually after about 3 weeks vs untreated controls, 100% = plants have died
Outline: as §1

[8] = test system: Setaria viridis; test: Pre-emergence herbicide efficacy at 320 g/ha, SETVI; settings: scored visually after about 3 weeks vs untreated controls, 100% = plants have died
Outline: as §1

[9] = test system: Matricaria inodora; test: Pre-emergence herbicide efficacy at 320 g/ha, MATIN; settings: scored visually after about 3 weeks vs untreated controls, 100% = plants have died
Outline: as §1

[10] = test system: Setaria viridis; test: Pre-emergence herbicide efficacy at 80 g/ha, SETVI
Outline: as §3

[11] = test system: Viola tricolor; test: Pre-emergence herbicide efficacy at 80 g/ha, VIOTR
Outline: as §3

[12] = test system: Stellaria media; test: Post-emergence herbicidal efficacy at 320 g/ha, STEME; settings: rated visually after about 3 weeks vs untreated controls, 100% = plants have died
Outline: as §5

[13] = test system: Viola tricolor; test: Post-emergence herbicidal efficacy at 80 g/ha, VIOTR; settings: rated visually after about 3 weeks vs untreated controls, 100% = plants have died
From the text: as §2
Seeds of monocotyledonous and dicotyledonous weeds and crop plants were placed in sandy loam in plastic or organic planting pots, covered with soil and cultivated in a greenhouse under controlled growth conditions. 2 to 3 weeks after sowing, the test plants were treated at the one-leaf stage. The compounds of the invention, formulated in the form of wettable powders (WP) or as emulsion concentrates (EC), were then sprayed onto the green parts of the plants as aqueous suspension or emulsion with addition of 0.5% additive at a water application rate of 600 l/ha (converted). After the test plants had been kept in the greenhouse under optimum growth conditions for about 3 weeks, the activity of the preparations was rated visually in comparison to untreated controls. For example, 100% activity=the plants have died, 0% activity=like control plants.
Tables B1 to B11 below show the effects of selected compounds of the general formula (I) according to Table 1 on various harmful plants and an application rate corresponding to 80 g/ha, which were obtained by the experimental procedure mentioned above.

[14] = test system: Polygonum convolvulus; test: Pre-emergence herbicide efficacy at 80 g/ha, POLCO; settings: scored visually after about 3 weeks vs untreated controls, 100% = plants have died
From the text: as §2
(§6) Seeds of monocotyledonous and dicotyledonous weed plants and crop plants were placed in plastic or organic planting pots and covered with soil. The compounds of the invention, formulated in the form of wettable powders (WP) or as emulsion concentrates (EC), were then applied to the surface of the covering soil as aqueous suspension or emulsion with addition of 0.5% additive at a water application rate equivalent to 600 l/ha. After the treatment, the pots were placed in a greenhouse and kept under good growth conditions for the test plants. After about 3 weeks, the efficacy of the preparations was scored visually in comparison with untreated controls as percentages. For example, 100% activity=the plants have died, 0% activity=like control plants.
(§7) Tables D1 to D12 below show the effects of selected compounds of the general formula (I) according to Table 1 on various harmful plants and an application rate corresponding to 80 g/ha, which were obtained by the experimental procedure mentioned above.

[15] = test system: Kochia scoparia; test: Pre-emergence herbicide efficacy at 320 g/ha, KCHSC; settings: scored visually after about 3 weeks vs untreated controls, 100% = plants have died
Outline: as §1

[16] = test system: Poa annua; test: Pre-emergence herbicide efficacy at 320 g/ha, POAAN; settings: scored visually after about 3 weeks vs untreated controls, 100% = plants have died
Outline: as §1

[17] = test system: Matricaria inodora; test: Pre-emergence herbicide efficacy at 80 g/ha, MATIN; settings: scored visually after about 3 weeks vs untreated controls, 100% = plants have died
From the text: as §2, §6, §7

[18] = test system: Stellaria media; test: Pre-emergence herbicide efficacy at 320 g/ha, STEME; settings: scored visually after about 3 weeks vs untreated controls, 100% = plants have died
Outline: as §1

[19] = test system: Poa annua; test: Post-emergence herbicidal efficacy at 320 g/ha, POAAN; settings: rated visually after about 3 weeks vs untreated controls, 100% = plants have died
Outline: as §5

[20] = test system: Digitaria sanguinalis; test: Post-emergence herbicidal efficacy at 320 g/ha, DIGSA; settings: rated visually after about 3 weeks vs untreated controls, 100% = plants have died
Outline: as §5

[21] = test system: Setaria viridis; test: Post-emergence herbicidal efficacy at 320 g/ha, SETVI; settings: rated visually after about 3 weeks vs untreated controls, 100% = plants have died
Outline: as §5

[22] = test system: Veronica persica; test: Post-emergence herbicidal efficacy at 80 g/ha, VERPE; settings: rated visually after about 3 weeks vs untreated controls, 100% = plants have died
Outline: as §4

[23] = test system: Amaranthus retroflexus; test: Post-emergence herbicidal efficacy at 80 g/ha, AMARE; settings: rated visually after about 3 weeks vs untreated controls, 100% = plants have died
Outline: as §4

[24] = test system: Kochia scoparia; test: Post-emergence herbicidal efficacy at 320 g/ha, KCHSC; settings: rated visually after about 3 weeks vs untreated controls, 100% = plants have died
Outline: as §5

[25] = test system: Echinochloa crus-galli; test: Pre-emergence herbicide efficacy at 80 g/ha, ECHCG; settings: scored visually after about 3 weeks vs untreated controls, 100% = plants have died
From the text: as §2, §6, §7

[26] = test system: Amaranthus retroflexus; test: Post-emergence herbicidal efficacy at 320 g/ha, AMARE; settings: rated visually after about 3 weeks vs untreated controls, 100% = plants have died
Outline: as §5

[27] = test system: Veronica persica; test: Pre-emergence herbicide efficacy at 80 g/ha, VERPE
From the text: as §2, §6, §7

[28] = test system: Abutilon theophrasti; test: Pre-emergence herbicide efficacy at 320 g/ha, ABUTH; settings: scored visually after about 3 weeks vs untreated controls, 100% = plants have died
Outline: as §1

[29] = test system: Digitaria sanguinalis; test: Pre-emergence herbicide efficacy at 320 g/ha, DIGSA; settings: scored visually after about 3 weeks vs untreated controls, 100% = plants have died
Outline: as §1

[30] = test system: Digitaria sanguinalis; test: Pre-emergence herbicide efficacy at 80 g/ha, DIGSA; settings: scored visually after about 3 weeks vs untreated controls, 100% = plants have died
Outline: as §3

[31] = test system: Veronica persica; test: Post-emergence herbicidal efficacy at 320 g/ha, VERPE; settings: rated visually after about 3 weeks vs untreated controls, 100% = plants have died
Outline: as §5

[32] = test system: Kochia scoparia; test: Pre-emergence herbicide efficacy at 80 g/ha, KCHSC; settings: scored visually after about 3 weeks vs untreated controls, 100% = plants have died
Outline: as §3

[33] = test system: Abutilon theophrasti; test: Post-emergence herbicidal efficacy at 320 g/ha, ABUTH; settings: rated visually after about 3 weeks vs untreated controls, 100% = plants have died
Outline: as §5

`N#Cc1cccc(Nc2ncc(F)cn2)c1-n1cc(C(F)(F)F)cn1` [Example 1-60] was tested, and the “Pre-emergence efficacy at 320 g/ha against AMARE in %” value [1] was 100%, the “Pre-emergence efficacy at 320 g/ha against ECHCG in %” value [2] was 90% and the “Pre-emergence efficacy at 320 g/ha against LOLRI in %” value [3] was 90%. The “Pre-emergence efficacy at 80 g/ha against AMARE in %” value [4] was 100%, the “Post-emergence efficacy at 80 g/ha against KCHSC in %” value [5] was 100% and the “Post-emergence efficacy at 320 g/ha against ECHCG in %” value [6] was 100%. The “Pre-emergence efficacy at 320 g/ha against VERPE in %” value [7] was 100%, the “Pre-emergence efficacy at 320 g/ha against SETVI in %” value [8] was 90% and the “Pre-emergence efficacy at 320 g/ha against MATIN in %” value [9] was 100%. The “Pre-emergence efficacy against SETVI” value [10] was 100%, the “Pre-emergence efficacy against VIOTR” value [11] was 100% and the “Post-emergence efficacy at 320 g/ha against STEME in %” value [12] was 100%. For the same molecule, the “Post-emergence efficacy at 80 g/ha against VIOTR in %” value [13] was 90%, the “Pre-emergence efficacy at 80 g/ha against POLCO in %” value [14] was 100% and the “Pre-emergence efficacy at 320 g/ha against KCHSC in %” value [15] was 100%. For the same molecule, the “Pre-emergence efficacy at 320 g/ha against POAAN in %” value [16] was 100%, the “Pre-emergence efficacy at 80 g/ha against MATIN in %” value [17] was 100% and the “Pre-emergence efficacy at 320 g/ha against STEME in %” value [18] was 100%. For the same molecule, the “Post-emergence efficacy at 320 g/ha against POAAN in %” value [19] was 100%, the “Post-emergence efficacy at 320 g/ha against DIGSA in %” value [20] was 90% and the “Post-emergence efficacy at 320 g/ha against SETVI in %” value [21] was 90%. For the same molecule, the “Post-emergence efficacy at 80 g/ha against VERPE in %” value [22] was 100%, the “Post-emergence efficacy at 80 g/ha against AMARE in %” value [23] was 90% and the “Post-emergence efficacy at 320 g/ha against KCHSC in %” value [24] was 100%. The “Pre-emergence efficacy at 80 g/ha against ECHCG in %” value [25] was 80%, the “Post-emergence efficacy at 320 g/ha against AMARE in %” value [26] was 100% and the “Pre-emergence efficacy against VERPE” value [27] was 80%. For the same molecule, the “Pre-emergence efficacy at 320 g/ha against ABUTH in %” value [28] was 90%, the “Pre-emergence efficacy at 320 g/ha against DIGSA in %” value [29] was 100% and the “Pre-emergence efficacy at 80 g/ha against DIGSA in %” value [30] was 100%. For the same molecule, the “Post-emergence efficacy at 320 g/ha against VERPE in %” value [31] was 100%, the “Pre-emergence efficacy at 80 g/ha against KCHSC in %” value [32] was 100% and the “Post-emergence efficacy at 320 g/ha against ABUTH in %” value [33] was 90%.
